How the values were obtained:
451 Lu = assay: cloning assay in methylcellulose (colony formation); type: cell-based, human; conditions: read-out: Inhibition of colony formation (methylcellulose) IC50
Procedure: (§1) Cells were embedded in complete culture medium supplemented with 0.8% methylcellulose (Methocel MC4000, Sigma), seeded in triplicate into 35-mm dishes (Greiner Bio-one Ref 627102, Dominique Dutscher) and incubated at 37° C. in a humidified 5% CO2 atmosphere. The number of cells seeded was 1000 cells per dish. After one to three weeks, according to cell lines, macroscopic clones were counted.

C9 = assay: as above; type: cell-based, human; conditions: read-out: Inhibition of colony formation (methylcellulose) IC50
Procedure: as §1

Mia Paca-2 = assay: as above; type: cell-based, human; conditions: read-out: Inhibition of colony formation (methylcellulose) IC50
Procedure: as §1

PANC-1 = assay: as above; type: cell-based, human; conditions: read-out: Inhibition of colony formation (methylcellulose) IC50
Procedure: as §1

A375 = assay: as above; type: cell-based, human; conditions: read-out: Inhibition of colony formation (methylcellulose) IC50
Procedure: as §1

1205 Lu = assay: as above; type: cell-based, human; conditions: read-out: Inhibition of colony formation (methylcellulose) IC50
Procedure: as §1

HT144 = assay: as above; type: cell-based, human; conditions: read-out: Inhibition of colony formation (methylcellulose) IC50
Procedure: as §1

SKMEL28 = assay: as above; type: cell-based, human; conditions: read-out: Inhibition of colony formation (methylcellulose) IC50
Procedure: as §1

MIA PaCa-2 cells = assay: morphological changes under microscopic observation (phenotype reversal); type: cell-based, human; conditions: 4 μM for 3 days
Excerpt: (§2) Changes in configuration and number of pancreatic cell lines were observed under microscopic observation (FIG. 5).

PANC-1 cell line = assay: as above; type: cell-based, human
Excerpt: as §2

B16F10 melanoma cells = assay: wound healing assay (cell motility); type: cell-based, murine; conditions: 50 nM
Procedure: Wound healing assay was performed to evaluate the effect of BA016DD537 on motility of malignant NIH 3T3 EF cells and melanoma cell lines B16F10 and B16BL6. All the cells were incubated at 37° C. in a humidified 5% CO2 atmosphere. About 100 000-200 000 cells were seeded in a 6-well culture plate and BA016DD537, at the different concentrations, was added 24 hours later. Cells were grown for 3 days to confluence about 90-95% and small scratch-wounds (about 200 μm-1 mm width) were made with a pipette tip. Cell debris were removed, then the cultures were incubated in complete medium for 10 h in the presence of the same concentration of BA016DD537. Then, the cells were fixed for 10 min in PBS containing 3.7% formaldehyde at 4° C.

[1] = system: actin in NIH 3T3 EF extract; assay: fluorescence anisotropy assay of actin dynamics in cell extract; type: biochemical; conditions: for k (rate constant of F-actin elongation) / Δ mA (anisotropy enhancement, steady state F-actin): malignant NIH 3T3 EF extract
Procedure: Actin dynamics is known to be impaired in tumor cells with a subsequent decrease of F-actin to G-actin ratio. Actin dynamics has been quantified in tumor cell extracts using the fluorescence anisotropy assay which gains access to rate constant of F-actin elongation (k) and steady state concentration of F-actin (Δ mA).
All reactions were carried out at 22° C. and fluorescence anisotropy signal was recovered at 520 nm with excitation at 490 nm in a Beacon 2000 (Panvera). Alexa 488 actin (Molecular Probes) was centrifuged at 35 000 rpm for 2 h at 4° C. to sediment residual actin polymers in a Beckman L5-50B ultracentrifuge. […] 80% of the supernatant was withdrawn; the concentration was defined through fluorescence measurements (excitation at 490 nm and signal recovering at 520 nm). The ultracentrifuged actin concentration was calculated using the non ultracentrifuged Alexa 488 actin as a standard. The supernatant was aliquoted, frozen in liquid nitrogen and stored at −80° C.
Before experiment, an aliquot of ultracentrifuged Alexa 488 actin was diluted to a concentration of […] in G buffer (5 mM Tris pH 8.1, 2 mM CaCl2, 0.2 mM DTT, 0.2 mM ATP). 3 μl of diluted Alexa 488 actin was mixed in 168 μl of G buffer and actin monomers anisotropy was measured before the addition of 4 μl of polymerisation buffer (2.5 M KCl, 50 mM MgCl2, 25 mM ATP), 5 μl of G buffer in the presence or in the absence of the chemical molecule and 20 μl cellular extract of normal NIH 3T3 cells or malignant NIH 3T3 EF cells at 2 mg/ml. The final concentration of Alexa 488 actin was 4 nM. The ratio of unlabelled to labelled actin was about 140/4 nM. Measurements were made each 10 sec for 200 sec. Actin monomers anisotropy value was subtracted, yielding the anisotropy enhancement (Δ mA). The data were fitted with the equation Y=Ymax. [1−exp(−K.X)]. The curves start at zero and ascend to Ymax that corresponds to the steady state anisotropy value (Δ mA eq), with a rate constant K. Y is anisotropy values of which monomers anisotropy is subtracted and X is the time.

NIH 3T3 EF cells = assay: F-actin network rescue, FITC-phalloidin fluorescence microscopy; type: cell-based; conditions: non cytotoxic concentrations (100 nM and 200 nM), three days
Procedure: Malignant NIH 3T3 EF cells were seeded onto glass cover slips at a density of 2000 cells per cm^2. The next day, BA016DD537 was applied to NIH 3T3 EF cells at various non cytotoxic concentrations (100 nM and 200 nM). Three days later, cells were fixed for 10 min in PBS containing 3.7% formaldehyde at 4° C. before examination with a fluorescence microscope. The formaldehyde solution was neutralized with 50 mM NH4Cl. Extraction was carried out for 4 min with 0.4% Triton X-100 in PBS. Cells were incubated for 1 h with blocking buffer (3% bovine serum albumin in PBS) and then for 20 min with FITC-phalloidin (Sigma) at room temperature. Cover slips were mounted in Vectashieldk (Zymed) and observed through a fluorescence microscope (Nikon).

Row | SMILES | IC50 (451 Lu) [nM] | IC50 (C9) [nM] | IC50 (Mia Paca-2) [nM] | IC50 (PANC-1) [nM] | IC50 (A375) [nM] | IC50 (1205 Lu) [nM] | IC50 (HT144) [nM] | IC50 (SKMEL28) [nM] | reversal of the transformed phenotype (cell morphology) (MIA PaCa-2 cells) | reversal of the transformed phenotype (cell morphology) (PANC-1 cell line) | inhibition of cell migration (B16F10 melanoma cells) | effect on actin-F elongation rate constant and actin-F steady state value ([1]; NIH 3T3 EF cytosolic fractions) | k (rate constant of F-actin elongation) ([1]; compound at 100 nM) [s⁻¹] | Δ mA (anisotropy enhancement, steady state F-actin) ([1]; compound at 100 nM) | k (rate constant of F-actin elongation) ([1]; compound at 200 nM) [s⁻¹] | Δ mA (anisotropy enhancement, steady state F-actin) ([1]; compound at 200 nM) | rebuilding of actin network / morphology (NIH 3T3 EF cells)
1 | CS(=O)(=O)[O-].Cc1c2cc[n+](CCN3CCCCC3)cc2c(C)c2c1[nH]c1ccc(O)cc12 [BA016FZ539, 2-(betapiperidino-2-ethyl)-9-hydroxyellipticinium methanesulfonate] | 2000 | 132 | 640 | 4300 | 97 | 247 | 125 | 515 | reversal from the transformed phenotype (FIG. 5, A) to a normal phenotype | not in PANC-1 cell line |  |  |  |  |  |  | 
2 | Cc1c2cc[n+](CCN3CCCCC3)cc2c(C)c2c1[nH]c1ccc(O)cc12.[Cl-] [BA016DD537, 2-(β-piperidinoethyl)-9-hydroxyellipticinium chloride] |  |  |  |  |  |  |  |  |  |  | complete inhibition | increases the actin-F elongation rate constant and the actin-F steady state value | 0.1636 | 52.38 | 0.1737 | 61.17 | able to rebuilt actin network in tumor cells at non cytotoxic concentration

Reference: patent US20090197906A1, “REVERSION OF MALIGNANT PHENOTYPE WITH 9-HYDROXY ELLIPTICINE DERIVATIVES” (priority 2006, published 2009)
